Test results reported in paper PMC5571359, “Screening the Medicines for Malaria Venture Pathogen Box across Multiple Pathogens Reclassifies Starting Points for Open-Source Drug Discovery” (Antimicrobial Agents and Chemotherapy, 2017).
Where two headings read alike, the source gives them in different places.

Key:
[1] = test system: NF54-pfs16-LUC-GFP stage IV gametocytes; assay: Plasmodium falciparum late stage gametocyte (LSG) image-based assay; type: cell-based; settings: for IC50: Plasmodium falciparum
P. falciparum ABS = settings: cited from earlier work; for EC50: ChEMBL Data, TCMDC, read-out: TCMDC (ref 93) EX50; for IC50: Pf 3D7, ref Pathogen Box supporting information, read-out: Pf 3D7 Pbox IC50
Kinase CDPK1 = target: Kinase CDPK1; parameters: method as in earlier work; settings: ChEMBL Data; read-out: CROWTHER ref 101) Kinase CDPK1 IC50; cited from earlier work
HepG2 = settings: cited from earlier work; for CC50: read-out: HepG2 PBox CC50 µM
[2] = test system: P. falciparum stage V gametocytes; settings: stage V gametocytes; ref Pathogen Box supporting information; read-out: PF stage V GAMS PBox IC50; cited from earlier work
[3] = test system: Plasmodium falciparum 3D7 asexual blood stage; assay: microbe, parasite or virus in culture
liver stage = settings: liver stage; ref Pathogen Box supporting information; read-out: LIVER STAGE Pbox IC50; cited from earlier work
[4] = test system: T. b. brucei 427 bloodstream trypanosomes; assay: T. b. brucei resazurin viability assay; type: cell-based, Trypanosoma brucei brucei; settings: for IC50: Trypanosoma brucei
[5] = test system: T. cruzi intracellular amastigotes; assay: Intracellular anti-Trypanosoma cruzi image-based assay (amastigotes); type: cell-based
[6] = HEK293 resazurin cell cytotoxicity assay; settings: human
3T3 host cells = assay: T. cruzi assay, activity against 3T3 host cells; type: cell-based; settings: reference compound set; IA = inactive at 16.4 μM
Outline: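 3T3 cells were seeded on collagen-coated plates, incubated 24 h at 37 °C, infected with T. cruzi at MOI 5:1, and washed free of extracellular parasites after a further 24 h. Following 48 h compound exposure, cells were fixed, stained with Hoechst 33342 and HCS CellMask Green, and imaged by high-content analysis.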

[7] = test system: L. donovani MHOM/IN/80/DD8 intracellular amastigotes; assay: Leishmania donovani intracellular amastigote assay in THP-1 cells; type: cell-based
T. brucei rhodesiense = settings: ref Pbox supporting information; read-out: T .b. rohdensie Pbox IC50; cited from earlier work
T. brucei brucei = settings: ref Pbox supporting information; read-out: T.b. brucei Pbox IC50; cited from earlier work
barber's pole worm = test system: barber's pole worm; parameters: method as in PMID 27524698; settings: cited from earlier work
[8] = test system: L. infanium (macrophages); parameters: method as in Pbox supporting information; settings: ref Pbox supporting information; cited from earlier work
[9] = test system: T. cruzi C4 β-galactosidase reporter parasite in MRC 5SV2 host cells; settings: ref Pbox supporting information; read-out: T. cruzi Pbox IC50; cited from earlier work
[10] = test system: Plasmodium falciparum 3D7 asexual blood stage
HEK293 cells [11] = assay: HEK293 resazurin cell cytotoxicity assay
[12] = test system: Candida albicans biofilm formation; parameters: method as in PMID 27795383; settings: cited from earlier work
[13] = test system: Plasmodium cGMP-dependent protein kinase (PfPKG); parameters: method as in PMID 16325279, PMID 20643897; settings: cited from earlier work
[14] = test system: L. infanium (macrophages); parameters: method as in Pathogen Box supporting information; settings: ref Pathogen Box supporting information, read-out: L. infanium (macrophages) Pbox IC50; cited from earlier work
HEK293 cells [15] = test system: HEK293 cells
[16] = NF54, read-out: Pf Stage IV GAMS Discovery Biology IC50 µM, stage IV gametocytes, Discovery Biology
[17] = HepG2 CC50, ref Pathogen Box supporting information
[18] = 3D7, read-out: Pf 3D7 Discovery Biology IC50 µM, P. falciparum 3D7 asexual blood stage, Discovery Biology
[19] = NF54, read-out: Antiplasmodial IC50 (GAM / LSG), PBox compounds, stage IV gametocytes, single determination
[20] = Trypanosoma cruzi, intracellular amastigotes, Discovery Biology, read-out: T cruzi Discovery Biology IC50
[21] = Leishmania donovani, THP-1, intracellular amastigotes, Discovery Biology, some values carry an asterisk, read-out: L, donovani Discovery Biology IC50 µM
[22] = read-out: IC50 T. brucei brucei (Discovery Biology)
[23] = HepG2 cytotoxicity, ref PBox supporting information

CN(C(=O)c1cc2c(-c3cncnc3)cccc2[nH]1)c1ccccc1 [MMV024443]
IC50 [1, 16]: 2.71 µM
EC50 (P. falciparum ABS): 630 nM
IC50 (P. falciparum ABS): 720 nM
IC50 (Kinase CDPK1): 270 nM
CC50 (HepG2; [17]): > 10 µM
IC50 [2]: 570 nM
IC50 [3, 18]: 1.69 µM
IC50 (liver stage): 1020 nM

CC(C)(C)[C@H]1CC[C@H](CC2=C(O)C(=O)c3ccccc3C2=O)CC1 [Buparvaquone, reference compound]
IC50 ([4]; reference compound set, IA = inactive at 20 μM, read-out: IC50 T. brucei brucei trypomastigotes): > 20000 nM
IC50 ([1]; NF54, read-out: IC50 P. falciparum NF54 LSG, reference compound set, 11-point dose response, IA = inactive at 20 μM): 5.3 µM
IC50 ([5]; Trypanosoma cruzi, reference compound set, IA = inactive at 16.4 μM, read-out: IC50 T. cruzi intracellular amastigotes): 4.92 µM
Emax ([5]; Trypanosoma cruzi, reference compound set, read-out: T. cruzi Emax (maximal % inhibition plateau in dose response curve)): 98.5%
IC50 ([3]; 3D7, read-out: IC50 P. falciparum 3D7 ABS, reference compound set, 11-point dose response, IA = inactive at 20 μM): 0.14 µM
IC50 at 72 h ([6]; HEK293 cells): > 20000 nM
IC50 (3T3 host cells): > 16400 nM
IC50 ([7]; Leishmania donovani, THP-1, read-out: IC50 L. donovani n = 1, reference compound set, first test, IA = inactive at 20 μM): 1.88 µM
inhibition at 20 µM ([7]; Leishmania donovani, THP-1, reference compound set, second test, 20 μM, read-out: percent inhibition at the top screening dose, L. donovani n = 2): 60%

CCc1nn(C)c(C(=O)NCc2ccc(Oc3ccc(C)cc3)cc2)c1Cl [MMV688934, Tolfenpyrad]
IC50 (T. brucei rhodesiense): 20400 nM
IC50 (T. brucei brucei): 33000 nM
activity against the helminth barber's pole worm (barber's pole worm): activity
IC50 [8]: 45600 nM
IC50 [9]: 5350 nM

Cc1[nH]c2ccccc2c1C(c1cccs1)N1CCN(C)CC1 (centres unmarked) [MMV688768]
selectivity index (SI) T. brucei brucei versus HEK293 ([4]; HEK293): > 13
selectivity index (SI) T. brucei brucei versus HEPG2 ([4]; HEPG2 (PBox data)): > 6
IC50 ([4]; PBox compounds, read-out: IC50 T. brucei brucei (Discovery Biology)): 1500 nM
IC50 [1, 19]: 4.7 µM
HepG2 PBox CC20 μMc (HepG2; ref Pbox supporting information): 8500 nM
activity in the Discovery Biology ABS assay [10]: not ABS activity
IC50 (HEK293 cells [11]; Homo sapiens, HEK293, read-out: HEK % Inhibition 20uM/IC50 Discovery Biology (IA)): > 20000 nM
activity against Candida albicans biofilm formation [12]: inhibitory activity
IC50 ([7]; Leishmania donovani, THP-1, intracellular amastigotes, values marked *, read-out: L, donovani Discovery Biology IC50 µM): 5.4 µM

Nc1ncc(-c2cn[nH]c2)cc1-c1nc2cc(Cl)cnc2[nH]1 [MMV023370]
EC50 (P. falciparum ABS): 920 nM
IC50 (P. falciparum ABS): 400 nM
IC50 (Kinase CDPK1): 280 nM

CN1CCC(c2cc(-c3ccncc3)c(-c3ccc(F)cc3)[nH]2)CC1 [MMV688703]
activity in the Discovery Biology stage IV gametocyte (LSG) assay [1]: does not affect
IC50 ([3]; 3D7, read-out: Antiplasmodial IC50 (ABS), PBox compounds, P. falciparum 3D7): 3.16 µM
IC50 [13]: 8.5 nM

COc1ccc(Oc2ccc([C@@H](C)N(C)c3ncc4c(N)nc(N)nc4n3)cc2)cc1 [MMV690102]
activity against T. brucei brucei in the Discovery Biology assay [4]: not active
activity against T. cruzi in the Discovery Biology assay [5]: demonstrated activity
IC50 [5, 20]: 0.09 µM
IC50 [14]: 30 nM
activity in the Discovery Biology ABS assay [10]: not active
activity in the HEK293 cytotoxicity assay (HEK293 cells [11]): no activity
activity against L. donovani in the Discovery Biology assay [7]: demonstrated activity
IC50 [7, 21]: 0.46 µM

Cc1cc(C2=NOC(c3cc(Cl)c(F)c(Cl)c3)(C(F)(F)F)C2)ccc1C(=O)NCc1ccc2c(c1)C(C)(C)OB2O (centres unmarked) [MMV687776]
HepG2 PBox CC20 μMc (HepG2): 10900 nM
IC50 (HepG2): 10900 nM
selectivity index (SI) T. cruzi versus HEK293 ([5]; HEK293): > 8
selectivity index (SI) T. cruzi versus HEPG2 ([5]; HEPG2 (PBox data)): 4.3
IC50 ([5]; Trypanosoma cruzi, PBox compounds, intracellular amastigotes, 48 h exposure, read-out: IC50 T. cruzi (Discovery Biology)): 2.39 µM
activity in the HEK293 cytotoxicity assay (HEK293 cells [15]): did not display activity

CCOC(=O)c1c(NC(=O)c2c(F)c(F)c(F)c(F)c2F)sc(C(N)=O)c1C [MMV153413]
IC50 [4, 22]: 2990 nM
IC50 [1, 19]: 1.06 µM
CC50 (HepG2; [23]): 4.2 µM
activity in the Discovery Biology ABS assay [10]: not ABS activity
selectivity ratio at 72 h [6]: > 5

C[C@H](c1ccc2c(c1)CCCC2)N(C)c1ncc2c(N)nc(N)nc2n1 [MMV690103]
activity against T. brucei brucei in the Discovery Biology assay [4]: not active
activity against T. cruzi in the Discovery Biology assay [5]: demonstrated activity
IC50 [5, 20]: 0.1 µM
IC50 [14]: 470 nM
activity in the Discovery Biology ABS assay [10]: not active
activity in the HEK293 cytotoxicity assay (HEK293 cells [11]): no activity
activity against L. donovani in the Discovery Biology assay [7]: demonstrated activity
IC50 [7, 21]: 5.2 µM

CC(C)(CN)c1nc(-c2ccc(Cl)c(O)c2)c(-c2ccnc(N)n2)[nH]1 [MMV030734]
EC50 (P. falciparum ABS): 980 nM
IC50 (P. falciparum ABS): 410 nM
IC50 (Kinase CDPK1): 7 nM
CC50 (HepG2; [17]): > 10 µM
IC50 (liver stage): 320 nM

CC(C)=CCC/C(C)=C/CNCCNC1C2CC3CC(C2)CC1C3 (centres unmarked) [MMV687273, SQ-109]
activity against T. brucei brucei in the Discovery Biology assay [4]: active
IC50 [4, 22]: 2280 nM
IC50 [1, 16]: 1.89 µM
CC50 (HepG2; [23]): 7.1 µM
activity against T. cruzi in the Discovery Biology assay [5]: active
IC50 ([5]; Trypanosoma cruzi, read-out: T cruzi Discovery Biology IC50 µM): 5.39 µM
IC50 [3, 18]: 1.43 µM
IC50 ([3]; 3D7, read-out: activity against P. falciparum (novel antiplasmodial actives of the tuberculosis set)): < 2 µM
activity in the Discovery Biology ABS assay [10]: active
selectivity ratio at 72 h [6]: > 5
activity against L. donovani in the Discovery Biology assay [7]: active
IC50 ([7]; Leishmania donovani, THP-1, read-out: IC50 L. donovani (Discovery Biology), PBox compounds, intracellular amastigotes): 3.47 µM

CC(c1cc(Cl)cc(Cl)c1)N(C)c1ncc2c(N)nc(N)nc2n1 (centres unmarked) [MMV689437]
activity against T. brucei brucei in the Discovery Biology assay [4]: not active
activity against T. cruzi in the Discovery Biology assay [5]: demonstrated activity
IC50 [5, 20]: 0.19 µM
IC50 [14]: 540 nM
activity in the Discovery Biology ABS assay [10]: not active
activity in the HEK293 cytotoxicity assay (HEK293 cells [11]): no activity
activity against L. donovani in the Discovery Biology assay [7]: demonstrated activity
IC50 [7, 21]: 5.73 µM
